This is an account of results in ChEMBL document CHEMBL1127502, “Mixed 5-HT1A/D-2 activity of a new model of arylpiperazines: 1-aryl-4-[3-(1,2-dihydronaphthalen-4-yl)-n-propyl]piperazines. 1. Synthesis and structure-activity relationships” (J Med Chem, 1994).

Assay [1] addresses T1, 5-hydroxytryptamine receptor 1A (Rattus norvegicus, UniProt P19327).
T1 sequence (P19327 whole entry): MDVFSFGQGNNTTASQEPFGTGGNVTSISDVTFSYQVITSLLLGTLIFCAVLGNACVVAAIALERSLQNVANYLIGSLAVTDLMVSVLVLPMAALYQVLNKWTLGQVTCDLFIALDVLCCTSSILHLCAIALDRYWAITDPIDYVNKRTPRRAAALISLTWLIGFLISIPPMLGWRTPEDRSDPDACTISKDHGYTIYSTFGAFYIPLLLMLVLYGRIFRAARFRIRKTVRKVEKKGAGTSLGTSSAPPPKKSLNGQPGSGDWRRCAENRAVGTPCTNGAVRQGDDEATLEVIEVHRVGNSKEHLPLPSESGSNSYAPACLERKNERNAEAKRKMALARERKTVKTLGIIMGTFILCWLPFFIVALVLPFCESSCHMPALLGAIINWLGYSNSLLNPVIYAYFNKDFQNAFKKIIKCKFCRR
Description: In vitro ability to inhibit binding of radioligand [3H]8-OH-DPAT to 5-hydroxytryptamine 1A receptor in rat cerebral cortex. The format is tissue-based.

The target in assay [2] is Serotonin 2 (5-HT2) receptor (Rattus norvegicus, UniProt P30994+P08909+P14842). Description: Inhibition of binding of radioligand [3H]ketanserin to 5-hydroxytryptamine 2 receptor in rat cerebral cortex. The format is tissue-based.
Assay [3] has as its target T2, D(2) dopamine receptor (Rattus norvegicus, UniProt P61169). Description: Inhibition of binding of radioligand [3H]spiroperidol to dopamine D2 receptor in rat striatal membranes. The format is cell membranes, Membrane.
The test system of assay [4] is Rattus norvegicus. In words: Effective dose required to inhibit behavior effects induced by 8-OH-DPAT in reserpinized rats after subcutaneous administration. The class given is functional. The settings on record: sc.
Assay [5] concerns the target T2, D(2) dopamine receptor. In words: In vitro ability to inhibit binding of radioligand [3H]spiroperidol to dopamine D2 receptor in rat corpora striata.
Assay [6] deals with T2, D(2) dopamine receptor. Description: In vito ability to inhibit binding of radioligand [3H]spiroperidol to dopamine D2 receptor in rat corpora striata.
The target of assay [7] is T2, D(2) dopamine receptor. In words: In vitro ability to inhibit binding of radioligand [3H]spiroperidol to dopamine D2 receptor in rat striatal membranes. The class given is cell membranes, Membrane.

Bounds are passed on as bounds.

T2 sequence (P61169 whole entry): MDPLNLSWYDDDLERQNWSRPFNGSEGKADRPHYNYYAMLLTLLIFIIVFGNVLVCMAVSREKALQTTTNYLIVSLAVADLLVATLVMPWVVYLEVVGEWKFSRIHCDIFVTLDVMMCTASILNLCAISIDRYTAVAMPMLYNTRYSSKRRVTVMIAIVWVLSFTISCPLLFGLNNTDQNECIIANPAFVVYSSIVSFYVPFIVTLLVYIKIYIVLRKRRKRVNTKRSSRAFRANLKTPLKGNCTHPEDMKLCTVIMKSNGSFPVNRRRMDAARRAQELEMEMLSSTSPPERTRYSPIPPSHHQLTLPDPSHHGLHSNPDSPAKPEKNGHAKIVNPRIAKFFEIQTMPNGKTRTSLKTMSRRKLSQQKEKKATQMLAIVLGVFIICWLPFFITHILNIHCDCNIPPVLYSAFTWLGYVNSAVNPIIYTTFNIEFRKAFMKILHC

With `COc1cccc2c1C(CCCN1CCN(c3cccc(C(F)(F)F)c3)CC1)=CCC2`, the IC50 amounted to 55.9 nM in assay [1], 2370 nM in assay [2] and 644 nM in assay [3]. In assay [4], this compound returned an ED50 of 24.2 mg/kg.
With `COc1cccc2c1C(CCCN1CCN(c3cccc(Cl)c3)CC1)=CCC2`, the results for the IC50 in assay [1], in assay [2] and in assay [3] were 31.4 nM, 1340 nM and 484 nM, respectively.
The matching figures for `COc1ccc2c(c1)CCC=C2CCCN1CCN(c2cc(OC)ccc2OC)CC1`: 161 nM, 932 nM and 201 nM.
As for `COc1ccc2c(c1)CCC=C2CCCN1CCN(c2ccccc2OC)CC1`, the IC50 stood at 2 nM in assay [1], 391 nM in assay [2] and 90.6 nM in assay [3]. The values for the Ki in assay [1] and in assay [5] were 1.78 nM and 22.4 nM, respectively. In assay [4], this compound had a 50% effective dose (ED50) of 0.76 mg/kg.
Take `COc1ccc2c(c1)CCC=C2CCCN1CCN(c2ccccn2)CC1`: the IC50 in assay [1] was found to be 63.6 nM; in assay [2] it was 146 nM; in assay [3], 778 nM.
The matching figures for `COc1ccc2c(c1)CCC=C2CCCN1CCN(c2ccccc2)CC1`: 147 nM, 119 nM and 777 nM.
The matching figures for `COc1ccc2c(c1)CCC=C2CCCN1CCN(c2cccc(C(F)(F)F)c2)CC1`: 138 nM, 1170 nM and 1290 nM.
Consider `COc1ccc2c(c1)CCC=C2CCCN1CCN(c2cccc(Cl)c2)CC1`, for which the IC50 in assay [1] was determined as 131 nM; in assay [2], 133 nM; in assay [3] it was 768 nM.
In the case of `COc1ccccc1N1CCN(CCCC2=CCCc3cccc(OC)c32)CC1`, the 50% inhibitory concentration (IC50) is 8.8 nM in assay [1], 770 nM in assay [2] and 17.4 nM in assay [3].
The matching figures for `COc1ccc2c(c1)CCC=C2CCCN1CCNCC1`: more than 10000 nM, more than 10000 nM and more than 10000 nM.
Consider `COc1cccc2c1C(CCCN1CCN(c3ccccc3)CC1)=CCC2`, for which the figures for the IC50 in assay [2] and in assay [3] were 204 nM and 303 nM, respectively.
As for `COc1cccc2c1C(CCCN1CCN(c3ccccn3)CC1)=CCC2`, the IC50 in assay [1] stood at 1.4 nM; in assay [2], 205 nM; in assay [3], 119 nM. Besides, the Ki was 1.26 nM in assay [1] and 29.5 nM in assay [6].
On to `COc1ccccc1N1CCN(CCCC2=CCCc3ccccc32)CC1`, for which the results for the IC50 in assay [1], in assay [2] and in assay [3] were 15.7 nM, 104 nM and 14.7 nM, respectively.
For the compound `COc1ccccc1N1CCN(CCCCN2C(=O)c3ccccc3C2=O)CC1` [NAN-190], in assay [7], affinity was put at a Ki of 9.55 nM.
